According to paper PMC9354932, “Heme Interferes With Complement Factor I-Dependent Regulation by Enhancing Alternative Pathway Activation” (Frontiers in Immunology, 2022):

Target: T1, factor I (FI) (Homo sapiens, UniProt P05156)
T1 construct: gene CFI; purified human complement factor I, commercial (CompTech); mature heavy and light chains of one precursor; immobilised on CM5 chip for SPR
T1 sequence (P05156 19-335): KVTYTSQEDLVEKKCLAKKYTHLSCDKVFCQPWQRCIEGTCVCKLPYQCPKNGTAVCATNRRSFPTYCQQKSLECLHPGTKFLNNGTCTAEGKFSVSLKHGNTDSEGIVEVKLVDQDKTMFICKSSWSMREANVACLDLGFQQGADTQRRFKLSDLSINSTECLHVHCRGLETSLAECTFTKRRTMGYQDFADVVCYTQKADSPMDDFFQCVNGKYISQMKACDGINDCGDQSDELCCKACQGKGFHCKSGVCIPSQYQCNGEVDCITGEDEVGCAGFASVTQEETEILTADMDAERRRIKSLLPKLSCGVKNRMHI
T1 sequence (P05156 340-583): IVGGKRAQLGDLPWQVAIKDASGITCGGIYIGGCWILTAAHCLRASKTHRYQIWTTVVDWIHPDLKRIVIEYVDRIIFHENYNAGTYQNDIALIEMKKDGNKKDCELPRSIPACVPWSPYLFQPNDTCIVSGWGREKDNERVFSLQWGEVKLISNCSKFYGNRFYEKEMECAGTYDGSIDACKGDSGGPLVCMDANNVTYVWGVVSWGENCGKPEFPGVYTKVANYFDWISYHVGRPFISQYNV
Assay: SPR (Biacore […]), factor I immobilised on CM5 chip
Assay type: binding
Details: read-out: KD (apparent)

Kd: 11.5 µM
SMILES: C=CC1=C(C)C2=Cc3c(C=C)c(C)c4[n]3[Fe]([Cl])[n]3c(c(C)c(CCC(=O)O)c3=CC3=NC(=C4)C(C)=C3CCC(=O)O)=CC1=N2 [heme]
